According to ChEMBL document CHEMBL4507260 (2021):

Tests used:
Settings in all cases: Compound concentration 1000.0 nM
[1] = target: Tyrosine-protein kinase SYK (Homo sapiens) (UniProt P43405)
[2] = target: Dual specificity protein kinase CLK2 (Homo sapiens) (UniProt P49760)
[3] = target: Serine/threonine-protein kinase N1 (Homo sapiens) (UniProt Q16512)
[4] = target: Calcium/calmodulin-dependent protein kinase type II subunit beta (Homo sapiens) (UniProt Q13554)
[5] = target: Ephrin type-B receptor 3 (Homo sapiens) (UniProt P54753)
[6] = target: Serine/threonine-protein kinase DCLK2 (Homo sapiens) (UniProt Q8N568)
[7] = test system: Phosphatidylinositol 4,5-bisphosphate 3-kinase catalytic subunit alpha isoform (Homo sapiens), P42336 [E545K]
[8] = target: Mitogen-activated protein kinase 1 (Homo sapiens) (UniProt P28482)
[9] = target: Serine/threonine-protein kinase BRSK2 (Homo sapiens) (UniProt Q8IWQ3)
[10] = target: Calcium/calmodulin-dependent protein kinase type II subunit alpha (Homo sapiens) (UniProt Q9UQM7)
[11] = target: Bone morphogenetic protein receptor type-1A (Homo sapiens) (UniProt P36894)
[12] = target: Cyclin-dependent kinase-like 3 (Homo sapiens) (UniProt Q8IVW4)
[13] = target: Serine/threonine-protein kinase PAK 1 (Homo sapiens) (UniProt Q13153)
[14] = test system: Mast/stem cell growth factor receptor Kit (Homo sapiens), P10721 [D816V]
[15] = target: Serine/threonine-protein kinase MRCK beta (Homo sapiens) (UniProt Q9Y5S2)
[16] = target: Activated CDC42 kinase 1 (Homo sapiens) (UniProt Q07912)
[17] = target: Interleukin-1 receptor-associated kinase 4 (Homo sapiens) (UniProt Q9NWZ3)
[18] = target: Mitogen-activated protein kinase kinase kinase 20 (Homo sapiens) (UniProt Q9NYL2)
[19] = target: MAP kinase-interacting serine/threonine-protein kinase 2 (Homo sapiens) (UniProt Q9HBH9)
[20] = target: Serine/threonine-protein kinase Nek4 (Homo sapiens) (UniProt P51957)
[21] = target: Serine/threonine-protein kinase 26 (Homo sapiens) (UniProt Q9P289)
[22] = target: Receptor tyrosine-protein kinase erbB-3 (Homo sapiens) (UniProt P21860)
[23] = target: Receptor-type tyrosine-protein kinase FLT3 (Homo sapiens) (UniProt P36888)
[24] = target: Wee1-like protein kinase (Homo sapiens) (UniProt P30291)
[25] = target: Protein kinase C epsilon type (Homo sapiens) (UniProt Q02156)
[26] = target: Tyrosine-protein kinase Blk (Homo sapiens) (UniProt P51451)
[27] = target: Phosphatidylinositol 5-phosphate 4-kinase type-2 beta (Homo sapiens) (UniProt P78356)
[28] = test system: Serine/threonine-protein kinase B-raf (Homo sapiens), P15056 [V600E]
[29] = target: TRAF2 and NCK-interacting protein kinase (Homo sapiens) (UniProt Q9UKE5)
[30] = target: Serine/threonine-protein kinase Nek9 (Homo sapiens) (UniProt Q8TD19)
[31] = target: Serine/threonine-protein kinase MRCK gamma (Homo sapiens) (UniProt Q6DT37)
[32] = test system: Tyrosine-protein kinase ABL1 (Homo sapiens), P00519 [E255K]
[33] = target: Ephrin type-A receptor 2 (Homo sapiens) (UniProt P29317)
[34] = target: Receptor-interacting serine/threonine-protein kinase 2 (Homo sapiens) (UniProt O43353)
[35] = target: Mitotic checkpoint serine/threonine-protein kinase BUB1 (Homo sapiens) (UniProt O43683)
[36] = target: Dual specificity testis-specific protein kinase 1 (Homo sapiens) (UniProt Q15569)
[37] = target: Interleukin-1 receptor-associated kinase 1 (Homo sapiens) (UniProt P51617)
[38] = test system: Receptor-type tyrosine-protein kinase FLT3 (Homo sapiens), P36888 [D835Y]
[39] = test system: Mast/stem cell growth factor receptor Kit (Homo sapiens), P10721 [A829P]
[40] = target: Ephrin type-B receptor 6 (Homo sapiens) (UniProt O15197)
[41] = target: Cyclin-dependent kinase 13 (Homo sapiens) (UniProt Q14004)
[42] = target: Vascular endothelial growth factor receptor 2 (Homo sapiens) (UniProt P35968)
[43] = target: Membrane-associated tyrosine- and threonine-specific cdc2-inhibitory kinase (Homo sapiens) (UniProt Q99640)
[44] = target: Tyrosine-protein kinase receptor Tie-1 (Homo sapiens) (UniProt P35590)
[45] = target: Serine/threonine-protein kinase PAK 3 (Homo sapiens) (UniProt O75914)

Measured: residual activity

Mitogen-activated protein kinase 1 (Homo sapiens), sequence (P28482 whole entry): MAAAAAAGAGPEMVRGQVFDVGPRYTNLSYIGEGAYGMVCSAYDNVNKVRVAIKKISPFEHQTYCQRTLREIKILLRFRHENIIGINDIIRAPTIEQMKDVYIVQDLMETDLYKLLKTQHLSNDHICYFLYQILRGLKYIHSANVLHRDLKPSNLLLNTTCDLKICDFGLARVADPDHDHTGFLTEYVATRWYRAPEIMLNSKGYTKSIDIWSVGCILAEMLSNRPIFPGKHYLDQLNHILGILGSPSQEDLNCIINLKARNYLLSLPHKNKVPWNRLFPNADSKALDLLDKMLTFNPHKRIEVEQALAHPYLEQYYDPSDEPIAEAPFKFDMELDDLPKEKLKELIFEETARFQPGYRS
Receptor-interacting serine/threonine-protein kinase 2 (Homo sapiens), sequence (O43353 whole entry): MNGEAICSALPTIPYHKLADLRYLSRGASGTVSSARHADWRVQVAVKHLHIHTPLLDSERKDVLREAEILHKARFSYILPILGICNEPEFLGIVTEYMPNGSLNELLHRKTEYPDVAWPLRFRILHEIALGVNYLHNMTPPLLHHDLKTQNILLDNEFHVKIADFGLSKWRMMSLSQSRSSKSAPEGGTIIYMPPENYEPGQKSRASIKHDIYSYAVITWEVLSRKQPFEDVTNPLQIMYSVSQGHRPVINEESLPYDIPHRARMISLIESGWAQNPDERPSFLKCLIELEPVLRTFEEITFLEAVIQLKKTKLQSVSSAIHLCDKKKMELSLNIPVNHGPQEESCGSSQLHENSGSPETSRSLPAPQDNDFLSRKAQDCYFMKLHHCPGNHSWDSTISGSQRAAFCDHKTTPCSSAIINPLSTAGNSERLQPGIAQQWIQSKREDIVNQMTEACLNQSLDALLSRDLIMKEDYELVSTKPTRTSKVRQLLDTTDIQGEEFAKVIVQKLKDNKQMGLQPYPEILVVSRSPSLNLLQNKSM
Membrane-associated tyrosine- and threonine-specific cdc2-inhibitory kinase (Homo sapiens), sequence (Q99640 whole entry): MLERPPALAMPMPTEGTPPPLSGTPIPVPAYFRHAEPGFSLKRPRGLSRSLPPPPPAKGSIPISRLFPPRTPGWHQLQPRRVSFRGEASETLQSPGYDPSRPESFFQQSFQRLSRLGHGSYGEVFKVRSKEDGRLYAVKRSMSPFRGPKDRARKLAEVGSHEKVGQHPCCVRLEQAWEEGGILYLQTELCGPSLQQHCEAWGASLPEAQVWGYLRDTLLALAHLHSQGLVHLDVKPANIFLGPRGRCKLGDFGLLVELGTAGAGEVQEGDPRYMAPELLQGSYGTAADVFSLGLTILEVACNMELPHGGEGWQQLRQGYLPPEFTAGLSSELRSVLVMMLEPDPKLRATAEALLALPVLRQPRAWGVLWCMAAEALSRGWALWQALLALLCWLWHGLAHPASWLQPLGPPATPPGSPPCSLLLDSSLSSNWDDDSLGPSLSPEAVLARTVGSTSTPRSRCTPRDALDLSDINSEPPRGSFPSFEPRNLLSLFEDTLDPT
TRAF2 and NCK-interacting protein kinase (Homo sapiens), sequence (Q9UKE5 whole entry, looked up): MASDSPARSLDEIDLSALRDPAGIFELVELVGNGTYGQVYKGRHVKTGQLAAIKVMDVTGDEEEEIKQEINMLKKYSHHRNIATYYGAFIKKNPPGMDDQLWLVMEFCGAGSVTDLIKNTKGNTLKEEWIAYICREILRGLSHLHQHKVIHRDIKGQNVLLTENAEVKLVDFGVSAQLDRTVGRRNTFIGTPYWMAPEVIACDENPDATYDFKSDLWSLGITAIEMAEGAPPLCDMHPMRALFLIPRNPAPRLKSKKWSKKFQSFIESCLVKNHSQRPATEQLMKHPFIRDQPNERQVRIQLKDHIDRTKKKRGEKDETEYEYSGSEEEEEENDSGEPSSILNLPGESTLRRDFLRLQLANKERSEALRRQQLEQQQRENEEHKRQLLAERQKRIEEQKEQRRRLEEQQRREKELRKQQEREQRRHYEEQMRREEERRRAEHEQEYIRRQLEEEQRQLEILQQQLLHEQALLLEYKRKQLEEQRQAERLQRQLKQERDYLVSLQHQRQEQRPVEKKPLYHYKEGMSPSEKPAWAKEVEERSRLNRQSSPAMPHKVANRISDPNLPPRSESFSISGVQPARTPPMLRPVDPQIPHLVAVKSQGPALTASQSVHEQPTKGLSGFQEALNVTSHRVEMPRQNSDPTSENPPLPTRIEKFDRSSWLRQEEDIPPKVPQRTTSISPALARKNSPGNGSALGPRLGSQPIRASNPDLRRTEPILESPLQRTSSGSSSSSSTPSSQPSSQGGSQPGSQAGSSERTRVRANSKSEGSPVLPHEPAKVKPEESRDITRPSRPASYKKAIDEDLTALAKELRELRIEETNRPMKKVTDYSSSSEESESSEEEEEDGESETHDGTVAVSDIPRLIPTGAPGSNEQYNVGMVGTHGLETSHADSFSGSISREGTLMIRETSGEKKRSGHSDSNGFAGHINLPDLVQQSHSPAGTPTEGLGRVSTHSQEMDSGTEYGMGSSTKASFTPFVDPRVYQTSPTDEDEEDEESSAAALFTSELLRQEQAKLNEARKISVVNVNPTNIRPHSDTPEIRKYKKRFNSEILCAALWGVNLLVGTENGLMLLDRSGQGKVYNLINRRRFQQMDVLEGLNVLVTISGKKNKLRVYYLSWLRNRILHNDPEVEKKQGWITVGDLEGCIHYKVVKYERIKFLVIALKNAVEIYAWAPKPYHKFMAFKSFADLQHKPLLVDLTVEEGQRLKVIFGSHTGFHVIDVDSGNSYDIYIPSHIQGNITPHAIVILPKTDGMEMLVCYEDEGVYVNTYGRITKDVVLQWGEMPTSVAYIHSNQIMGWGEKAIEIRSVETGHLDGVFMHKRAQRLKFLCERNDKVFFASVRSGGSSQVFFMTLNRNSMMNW
Ephrin type-B receptor 3 (Homo sapiens), sequence (P54753 whole entry): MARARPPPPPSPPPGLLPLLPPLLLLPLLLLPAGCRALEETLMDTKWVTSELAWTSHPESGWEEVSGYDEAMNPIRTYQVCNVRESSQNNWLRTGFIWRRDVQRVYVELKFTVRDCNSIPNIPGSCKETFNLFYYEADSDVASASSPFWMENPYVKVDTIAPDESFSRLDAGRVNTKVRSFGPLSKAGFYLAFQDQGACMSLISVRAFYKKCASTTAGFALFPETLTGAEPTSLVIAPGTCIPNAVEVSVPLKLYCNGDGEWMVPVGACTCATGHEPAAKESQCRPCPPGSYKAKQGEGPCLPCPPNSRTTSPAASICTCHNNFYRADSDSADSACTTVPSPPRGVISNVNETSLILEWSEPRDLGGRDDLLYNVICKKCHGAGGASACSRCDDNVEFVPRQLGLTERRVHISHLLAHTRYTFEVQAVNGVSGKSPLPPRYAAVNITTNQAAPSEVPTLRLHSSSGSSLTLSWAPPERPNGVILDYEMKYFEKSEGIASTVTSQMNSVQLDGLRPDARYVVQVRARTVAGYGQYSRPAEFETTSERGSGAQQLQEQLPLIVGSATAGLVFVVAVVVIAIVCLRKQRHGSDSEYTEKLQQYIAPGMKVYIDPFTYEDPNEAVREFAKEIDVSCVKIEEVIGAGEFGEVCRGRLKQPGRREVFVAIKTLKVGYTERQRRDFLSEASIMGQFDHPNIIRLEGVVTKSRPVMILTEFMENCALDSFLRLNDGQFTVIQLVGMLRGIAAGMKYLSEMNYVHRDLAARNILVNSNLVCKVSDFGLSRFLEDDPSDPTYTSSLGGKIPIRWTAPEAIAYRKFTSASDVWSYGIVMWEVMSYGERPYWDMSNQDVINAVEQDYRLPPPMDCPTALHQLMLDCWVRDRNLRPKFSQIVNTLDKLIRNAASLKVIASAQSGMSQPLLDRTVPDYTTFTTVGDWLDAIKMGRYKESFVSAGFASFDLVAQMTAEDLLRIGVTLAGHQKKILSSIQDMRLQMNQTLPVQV
Ephrin type-A receptor 2 (Homo sapiens), sequence (P29317 whole entry): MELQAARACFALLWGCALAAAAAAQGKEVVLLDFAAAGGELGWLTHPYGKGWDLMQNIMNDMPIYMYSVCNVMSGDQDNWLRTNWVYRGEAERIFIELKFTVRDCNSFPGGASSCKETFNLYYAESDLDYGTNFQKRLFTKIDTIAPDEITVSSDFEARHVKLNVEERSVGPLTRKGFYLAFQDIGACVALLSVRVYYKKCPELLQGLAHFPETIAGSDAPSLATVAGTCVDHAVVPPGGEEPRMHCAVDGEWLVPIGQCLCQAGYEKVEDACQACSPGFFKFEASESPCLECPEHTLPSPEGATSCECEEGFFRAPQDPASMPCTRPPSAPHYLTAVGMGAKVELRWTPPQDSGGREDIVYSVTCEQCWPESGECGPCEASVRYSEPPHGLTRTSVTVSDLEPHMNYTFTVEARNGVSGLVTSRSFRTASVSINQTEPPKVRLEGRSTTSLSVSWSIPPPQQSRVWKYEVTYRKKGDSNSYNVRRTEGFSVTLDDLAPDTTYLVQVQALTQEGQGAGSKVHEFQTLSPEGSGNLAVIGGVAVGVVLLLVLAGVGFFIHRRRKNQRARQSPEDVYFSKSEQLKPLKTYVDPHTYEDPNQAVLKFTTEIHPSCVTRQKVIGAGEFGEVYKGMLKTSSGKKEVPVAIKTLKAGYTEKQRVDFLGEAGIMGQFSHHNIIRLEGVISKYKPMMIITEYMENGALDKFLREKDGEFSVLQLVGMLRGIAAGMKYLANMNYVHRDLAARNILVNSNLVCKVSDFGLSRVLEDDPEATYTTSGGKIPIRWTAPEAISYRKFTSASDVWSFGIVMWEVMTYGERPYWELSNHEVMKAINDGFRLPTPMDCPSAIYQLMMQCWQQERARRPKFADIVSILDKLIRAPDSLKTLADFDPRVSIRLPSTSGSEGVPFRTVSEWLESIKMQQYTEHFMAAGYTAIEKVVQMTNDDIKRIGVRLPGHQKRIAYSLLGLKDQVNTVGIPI

c1ccc(N2CCN(Cc3nc4ccccc4[nH]3)CC2)nc1 [ABT-724]
inactive: [1] 100% | [2] 89% | [3] 88% | [4] 100% | [5] 100% | [6] 98% | [7] 59% | [8] 100% | [9] 100% | [10] 100% | [11] 86% | [12] 100% | [13] 94% | [14] 100% | [15] 100% | [16] 100% | [17] 100% | [18] 92% | [19] 100% | [20] 100% | [21] 100% | [22] 91% | [23] 100% | [24] 100% | [25] 100% | [26] 100% | [27] 100% | [28] 100% | [29] 100% | [30] 100% | [31] 100% | [32] 100% | [33] 100% | [34] 100% | [35] 100% | [36] 97% | [37] 100% | [38] 100% | [39] 100% | [40] 75% | [41] 100% | [42] 100% | [43] 100% | [44] 96% | [45] 100%

CSc1cccnc1N1CCN(Cc2nc3ccccc3[nH]2)CC1 [A-769]
inactive: [1] 100% | [2] 100% | [3] 100% | [4] 100% | [5] 93% | [6] 100% | [7] 74% | [8] 93% | [9] 100% | [10] 100% | [11] 100% | [12] 100% | [13] 100% | [14] 90% | [15] 100% | [16] 100% | [17] 74% | [18] 100% | [19] 75% | [20] 88% | [21] 95% | [22] 90% | [23] 100% | [24] 100% | [25] 77% | [26] 96% | [27] 100% | [28] 85% | [29] 100% | [30] 100% | [31] 100% | [32] 67% | [33] 100% | [34] 100% | [35] 90% | [36] 100% | [37] 73% | [38] 100% | [39] 100% | [40] 89% | [41] 85% | [42] 89% | [43] 100% | [44] 100% | [45] 87%
